Laboratory results from US20020086876A1, “Treatment of anti-depression drug-induced sexual dysfunction with apomorphine” (priority 2000, published 2002).

System: sexual dysfunction in male patients taking selective serotonin reuptake inhibitors
Assay: Crossover home-use trial of sublingual apomorphine in male patients taking SSRIs (sexual function questionnaire)
Assay type: in vivo, human (male patients)
Settings: male patients on SSRI's
Protocol: A crossover study of 1500 patients in a home-use trial of apomorphine on male patients was performed.
In the crossover study, a 2-4 week baseline period was used to evaluate subjects. After this time, during an initial four week treatment period, subjects received either a placebo or apomorphine, without knowing whether or not they had received the active medication. The dosage was either 2, 4, 5 or 6 mg. This initial treatment period was followed by a 24-96 hour washout period, in which no medication was taken. Subsequently, a second four week treatment period, subjects who previously had received apomorphine, were given a placebo, and subjects who previously had received the placebo were given apomorphine. Subject were to attempt coitus once each week after taking a single tablet of apomorphine sublingually. After each attempt, the subject and their partner completed a sexual function questionnaire which was later evaluated and used for final statistical analysis. In the analysis, the data for patients receiving 2, 4, 5 or 6 mg dosages was pooled.

## CN1CCc2cccc3c2[C@H]1Cc1ccc(O)c(O)c1-3 [apomorphine, (R)-5,6,6a,7-tetrahydro-6-methyl-4H-dibenzo-[de,g]quinoline-10,11-diol]
Apomorphine versus placebo
  patients on SSRI drugs able to have intercourse after apomorphine, relative to placebo: twice as many patients on SSRI drugs were able to have intercourse
Single sublingual tablet, pooled 2, 4, 5 or 6 mg dosages, four week treatment period, placebo 23.4%
  attempts successful: attempt resulted in intercourse: 47.6%
Single sublingual tablet, pooled 2, 4, 5 or 6 mg dosages, four week treatment period, placebo 26%
  attempts successful: erection firm enough for intercourse attained: 48%
